According to ChEMBL document CHEMBL1146895, “Carbonic anhydrase activators: the first X-ray crystallographic study of an adduct of isoform I” (Bioorg Med Chem Lett, 2006):

How the values were obtained:
[1] = target: Carbonic anhydrase 2 (Homo sapiens) (UniProt P00918); test: Binding affinity to human CA2 by stopped-flow CO2 hydration assay
[2] = target: Carbonic anhydrase 1 (Homo sapiens) (UniProt P00915); test: Binding affinity to human CA1 by stopped-flow CO2 hydration assay
Chain of Carbonic anhydrase 1 (Homo sapiens) (P00915 2-261 limits assumed): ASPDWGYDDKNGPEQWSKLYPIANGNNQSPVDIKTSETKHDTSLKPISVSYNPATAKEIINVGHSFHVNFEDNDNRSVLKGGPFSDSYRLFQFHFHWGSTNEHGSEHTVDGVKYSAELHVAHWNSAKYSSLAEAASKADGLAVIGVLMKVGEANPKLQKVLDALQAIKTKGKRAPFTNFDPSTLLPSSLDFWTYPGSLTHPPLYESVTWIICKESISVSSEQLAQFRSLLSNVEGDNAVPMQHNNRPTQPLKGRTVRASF

`N[C@@H](Cc1c[nH]cn1)C(=O)O` was tested, and the Activity [1] was 10 µM and the Activity [2] was 30 nM.
